From patent publication US8394929B2, “Nogo receptor-mediated blockade of axonal growth” (Yale University, priority 2000, dated 2013)
Where two headings read alike, the source gives them in different places.

B1: NgR-ecto: secreted fragment of amino acid residues 1-348 of the murine NgR, in HEK293T conditioned medium (protein)
chain: CPGACVCYNEPKVTTSCPQQGLQAVPTGIPASSQRIFLHGNRISHVPAASFQSCRNLTILWLHSNALARIDAAAFTGLTLLEQLDLSDNAQLHVVDPTTFHGLGHLHTLHLDRCGLRELGPGLFRGLAALQYLYLQDNNLQALPDNTFRDLGNLTHLFLHGNRIPSVPEHAFRGLHSLDRLLLHQNHVARVHPHAFRDLGRLMTLYLFANNLSMLPAEVLMPLRSLQYLRLNDNPWVCDCRARPLWAWLQKFRGSSSEVPCNLPQRLADRDLKRLAASDLEGCAVASGPFRPIQTSQLTDEELLSLPKCCQPDAADKASVLE
modifications: left off: small tags and cut ends
notes: secreted fragment of amino acid residues 1-348 of the murine NgR, in HEK293T conditioned medium

Tested on: GST-Nogo-66 inhibition of neurite outgrowth
Test: Blockade of Nogo-induced inhibition of neurite outgrowth in chick DRG neurons
Format: cell-based
Protocol: For all experiments involving cell culture, the following methods were employed. The culture of embryonic chick E10 and E12 dorsal root ganglion explants and dissociated neurons utilized methods described for E7 dorsal root ganglion cultures (Takahashi et al., (1998) Nature Neurosci. 1, 487-493; Takahashi et al., (1999) Cell 99, 59-69; Goshima et al., (1995) Nature 376, 509-514; Jin & Strittmatter, (1997) J. Neurosci. […]). NGF-differentiated PC12 cells were cultured as described (Strittmatter et al., (1994) J. Neurosci. 14, 2327-2338). Embryonic spinal cord explants (rat E10 or chick E5) were cultured for 7-14 days in the presence of PDGF-AA to induce differentiation of some cells into mature oligodendrocytes (Vartanian et al., (1999) Proc. Natl. Acad. Sci. USA 96, 731-735). The procedure for growth cone collapse assays is identical to that for analysis of Sema3A-induced growth cone collapse (Takahashi et al., (1998) Nature Neurosci. 1, 487-493; Takahashi et al., (1999) Cell 99, 59-69; Goshima et al., (1995) Nature 376, 509-514; Jin & Strittmatter, (1997) J. Neurosci. 17, 6256-6263). The method for analysis of total neurite outgrowth has also been described (Goshima et al., (1995) Nature 376, 509-514; Jin & Strittmatter, (1997) J. Neurosci. 17, 6256-6263; Strittmatter et al., (1994) J. Neurosci. 14, 2327-2338). In outgrowth assays, proteins and peptides were added one hour after plating to minimize any effect on the total number of adherent cells. To test the effect of substrate-bound GST or GST-Nogo, the protein solutions were dried on poly-L-lysine coated glass, washed and then coated with laminin. For E12 cultures, the neuronal identity of cells was verified by staining with anti-neurofilament antibodies (2H3, Develomental Studies Hybridoma Bank) and neurites were traced by observation of rhodamine-phalloidin staining of F-actin in processes.
Peptide 140 was tested for its ability to neutralize neurite outgrowth inhibition caused by the addition of GST fused to residues #1055-1120 of hNogoA (designated Nogo-66 in FIG. 16e). Plastic chamber slides were coated with 100 μg ml^−1 poly-L-lysine, washed, and dried. 3 μl drops of PBS containing GST-hNogoA(residues #1055-1120) were spotted and dried. Slides were then rinsed and coated with 10 μg ml fs24^−1 laminin before addition of dissociated E12 chick DRGs. Peptide 140 was added at the time of cell plating. Cultures were grown for 5-7 h after which neurite outgrowth was assessed.
Although the role of the GPI anchor may be to regulate NgR cellular compartmentalization, another possible role for the GPI linkage is to provide a NgR cleavage site. Cleaving NgR could serve to affect hNogo-A (1055-1120) signaling by rendering a neuron insensitive to hNogo-A (1055-1120) and by releasing soluble NgR that could then act on adjacent cells to modulate hNogo-A (1055-1120) signaling. To determine if soluble mNgR modulates hNogo-A (1055-1120)-dependent inhibition, a soluble mNgR was generated by inserting a truncated cDNA encoding mNgR residues 1-348 in frame with a myc-His carboxy tag into pcDNA3.1. The resulting plasmid expressing mNgREcto was transfected into HEK293T cells, and conditioned media containing mNgREcto protein was collected. To test the effect of mNgREcto on Nogo signaling, E13 dissociated DRGs were plated in the presence of hNogo-A (1055-1120) or myelin. The inhibitors were presented in either soluble or substrate-bound forms. For neurite outgrowth assays on hNogo-A (1055-1120) or myelin substrates, Permanox chamber slides were coated with 100μ, fs24 g ml^−1 poly-L-Lysine, washed, and then 3-μl drops of phosphate-buffered saline (hereinafter “PBS”) containing 0, 10, 50, or 150 ng of GST-hNogo-A (1055-1120) or myelin were spotted and dried. GST-hNogo-A (1055-1120) and myelin were prepared as previously described (GrandPre et al., supra; Fournier et al., J. Cell Biol. 149:411-421, 2000). After three PBS washes, slides were coated with 10 μg ml^−1 laminin. […]

Row | Molecule | blockade of Nogo-induced neurite outgrowth inhibition (in words) | blockade of Nogo-induced neurite outgrowth inhibition (in words) (listed as 2-41 fragment) | blockade of Nogo-induced neurite outgrowth inhibition (in words) (listed as NgREcto)
1 | Pep2-41: 2-41 fragment of the 66 amino acid region of Nogo, acetylated and amidated at the termini (Ac-RIYKGVIQAIQKSDEGHPFRAYLESEVAISEELVQKYSNS-NH2) | can reverse the inhibition of neurite outgrowth | blocks | 
2 | Peptide 140: synthetic peptide of amino acids #1055-1094 of the human NogoA protein, acetylated and amidated at the termini (Ac-RIYKGVIQAIQKSDEGHPFRAYLESEVAISEELVQKYSNS-NH2; UniProt Q9NQC3 1055-1094, looked up, fragment) | extensive outgrowth is observed |  | 
3 | B1 | blocks Nogo-66-induced inhibition of neurite outgrowth |  | partially reversed
